Results taken from patent US7662842B2, “Thiazolidinone amides, thiazolidine carboxylic acid amides, and serine amides, including polyamine conjugates thereof, as selective anti-cancer agents” (Ohio State Univesity Research Foundation, priority 2003, dated 2010).
Structures can show the parent of a compound that is named as a salt. Where two headings read alike, the source gives them in different places. Each block holds one compound with its values, some of them ahead of it.

How the values were obtained:
[1] = test system: WM-164 cells; experiment: Sulforhodamine B assay in melanoma cells, WM-164; type: cell-based; details: SRB assay, 48 h incubation, melanoma cell line
Description: (§1) SKMEL-188 cells were cultured in Ham's F10 medium (Gibco Invitrogen, Inc., Grand Island, N.Y.) plus 5% fetal bovine serum (Cellgro Mediatech, Inc., Herndon, Va.) and 1% antibiotic/antimycotic mixture (Sigma-Aldrich, Inc., St. Louis, Mo.). WM-164 cells (gift of Dr. Meenhard Herlyn, Wistar Inst., Philadelphia, Pa.) and human dermal fibroblasts (Cascade Biologics, Inc., Portland, Oreg.) were cultured in DMEM medium (Cellgro Mediatech, Inc.) supplemented with 5% fetal bovine serum, 1% antibiotic.antimycotic mixture and bovine insulin ([…], Sigma-Aldrich, Inc.). Human dermal fibroblasts were used as a control to examine the effects of compounds on stromal environment. Thus, the effect of the various compounds on melanoma cells versus fibroblasts would document their potential selectivity.
(§2) Sulforhodamine B Assay: Cells were seeded into 96-well plates at 5000 cells/well. After 12 hours, media were changed and serial dilutions of compounds were added. Cells were incubated with each compound for 48 hours. Fresh media containing the test compound were changed ever 24 hours. Thereafter, total cell protein corresponding to cell numbers (both viable and non-viable cells) were measured using the sulforhodamine B (SRB) assay according to manufacturer's protocol (Sigma-Aldrich, Inc.) (Rubinstein et al., “Comparison of in vitro Anticancer Drug-screening Data Generated with a Tetrazolium Assay Versus a Protein Assay Against a Diverse Panel of Human Tumor Cell Lines,” J. Natl. Cancer Inst. 82:1113-1118 (1990); Dothager et al., “Synthesis and Identification of Small Molecules that Potently Induce Apoptosis in Melanoma Cells Through GI Cell Cycle Arrest,” J. Am. Chem. Soc. 127:8686-8696 (2005), each of which is hereby incorporated by reference in its entirety). Briefly, cells were fixed with trichloracetic acid, washed and incubated with sulforhodamine B for 30 minutes. After another wash, dye incorporated into the cells was solubilized and measured using a plate reader at 565 nm.
(§3) Statistical Analysis: Data is presented as mean±SEM (n=6-8). […] Statistical analyses were performed with Student's t-test (*p<0.05; **p<0.005).
(§4) DTIC and Taxol were assayed in the same way for comparison and served as internal quality controls in the different batches of assay. For comparison, the activities of 5R and 5S were measured.

[2] = test system: SKMEL-188 melanoma cells; experiment: Sulforhodamine B assay in melanoma cells, SKMEL-188; type: cell-based; details: SRB assay, 48 h incubation, melanoma cell line
Description: as §1, §2, §3, §4

[3] = test system: human dermal fibroblasts; experiment: Sulforhodamine B assay, fibroblast control cells; type: cell-based; details: SRB assay, 48 h incubation
Description: as §1, §2, §3, §4

[4] = test system: human breast cancer cell line (MCF-7); experiment: SRB cytotoxicity assay, MCF-7; type: cell-based
Description: (§5) For in vitro cytotoxicity screening, 1000 to 5000 cells were plated into each well of 96-well plates depending on growth rate, and exposed to different concentrations of a test compound for 96 h in three to five replicates. All the compounds were dissolved in dimethyl sulfoxide at 5 to 20 mM, and diluted to desired concentrations in complete culture medium. Cell numbers at the end of the drug treatment were measured by the SRB assay (Gududuru et al., “Synthesis and Biological Evaluation of Novel Cytotoxic Phospholipids for Prostate Cancer,” Bioorg. Med. Chem. Lett. 14:4919-4923 (2004); Rubinstein et al., “Comparison of in vitro Anticancer-Drug-Screening Data Generated with a Tetrazolium Assay Versus a Protein Assay Against a Diverse Panel of Human Tumor Cell Lines,” J. Natl. Cancer Inst. 82:1113-1118 (1990), each of which is hereby incorporated by reference in its entirety). Briefly, the cells were fixed with 10% of trichloroacetic acid, stained with 0.4% SRB, and the absorbances at 540 nm was measured using a plate reader (DYNEX Technologies, Chantilly, Va.). […] A sandwich ELISA (Roche, Mannheim, Germany) utilizing monoclonal antibodies specific for DNA and histones was used to quantify degree of apoptosis induced by the analogs after 72 h exposure. This assay measures DNA-histone complexes (mono- and oligonucleosomes) released into cytoplasm from the nucleus during apoptosis.
In vitro cytotoxicity assay was performed by the same sulforhodamine B (SRB) assay (described above). The compounds shown in Table 8 below where tested for activity against the breast cancer and ovarian cancer cell lines.
RH7777 and CV-1 cells were used as negative controls and MCF-7 cell line (breast cancer) was included to examine the selectivity.

[5] = test system: PPC-1 human prostate cancer cells; experiment: SRB cytotoxicity assay, PPC-1; type: cell-based; details: prostate cancer cell line
Description: (§6) Dr. Mitchell Steiner at University of Tennessee Health Science Center, kindly provided PPC-1 and TSU-Pr1 cells.
as §5

[6] = test system: PC-3 human prostate cancer cells; experiment: SRB cytotoxicity assay, PC-3; type: cell-based; details: 96 h exposure, prostate cancer cell line
Description: as §5

[7] = test system: DU-145 human prostate cancer cells; experiment: SRB cytotoxicity assay, DU-145; type: cell-based
Description: as §5

[8] = test system: RH7777 rat hepatoma cells; experiment: SRB cytotoxicity assay, RH7777 control cell line; type: cell-based; details: SRB assay, 96 h exposure, control cell line
Description: as §5

[9] = test system: TSU-Pr1 human prostate cancer cells; experiment: SRB cytotoxicity assay, TSU-Pr1; type: cell-based; details: prostate cancer cell line
Description: as §6, §5

[10] = test system: LNCaP human prostate cancer cells; experiment: SRB cytotoxicity assay, LNCaP; type: cell-based; details: 96 h exposure, prostate cancer cell line
Description: as §5

[11] = test system: CV-1 cells; experiment: SRB cytotoxicity assay, CV-1 control cell line; type: cell-based
Description: For in vitro cytotoxicity screening, 1000 to 5000 cells were plated into each well of 96-well plates depending on growth rate, and exposed to different concentrations of a test compound for 96 h in three to five replicates. All the compounds were dissolved in dimethyl sulfoxide at 5 to 20 mM, and diluted to desired concentrations in complete culture medium. Cell numbers at the end of the drug treatment were measured by the SRB assay (Gududuru et al., “Synthesis and Biological Evaluation of Novel Cytotoxic Phospholipids for Prostate Cancer,” Bioorg. Med. Chem. Lett. 14:4919-4923 (2004); Rubinstein et al., “Comparison of in vitro Anticancer-Drug-Screening Data Generated with a Tetrazolium Assay Versus a Protein Assay Against a Diverse Panel of Human Tumor Cell Lines,” J. Natl. Cancer Inst. 82:1113-1118 (1990), each of which is hereby incorporated by reference in its entirety). Briefly, the cells were fixed with 10% of trichloroacetic acid, stained with 0.4% SRB, and the absorbances at 540 nm was measured using a plate reader (DYNEX Technologies, Chantilly, Va.). […] A sandwich ELISA (Roche, Mannheim, Germany) utilizing monoclonal antibodies specific for DNA and histones was used to quantify degree of apoptosis induced by the analogs after 72 h exposure. This assay measures DNA-histone complexes (mono- and oligonucleosomes) released into cytoplasm from the nucleus during apoptosis. RH7777 cells were employed because of nonspecific cytotoxicity of compound 4 in receptor-negative cells as well as receptor-positive prostate cancer cells.
RH7777 and CV-1 cells were used as negative controls and MCF-7 cell line (breast cancer) was included to examine the selectivity. 5-Fluorouracil was used as reference drug.

[12] = Homo sapiens, WM164, read-out: IC50 WM-164
[13] = Homo sapiens, PPC-1, 96 h exposure
[14] = read-out: IC50 DU-145, 96 h exposure, prostate cancer cell line

IC50 [1, 12]: 3.3 µM
IC50 ([2]; SK-MEL-188, 48 h): 3.8 µM
SMILES: CCCCCCCCCCCCCCOCCCNCCCNC(=O)[C@@H](CO)NC(=O)OC(C)(C)C
IC50 ([3]; Homo sapiens, Fibroblast, 48 h): 3.4 µM

melting point: 99 °C
SMILES: CCCCCCCCCCCCCCCCCCNC(=O)C1CSC(c2ccoc2)N1 (stereo not drawn) (as salt: hydrochloride) [Compound 12, 2-(furan-3-yl)-N-octadecylthiazolidine-4-carboxamide]

melting point: 86 °C
SMILES: CCCCCCCCCCCCCCCCCCNC(=O)[C@@H]1CSC(CCCCCCCCCCCC)N1 (mixture of isomers) [Compound 7, (2RS, 4R)-2-Dodecylthiazolidine-4-carboxylic acid octadecylamide]

IC50 [1, 12]: > 50 µM
SMILES: CCCCCCCCCCCCCCCCCCNC(=O)[C@@H]1CSC(C2CCCCC2)N1 (mixture of isomers) [Compound 8, (2RS, 4R)-2-Cyclohexylthiazolidine-4-carboxylic acid octadecylamide]

SMILES: CCCCCCCCCCCCCCCCCCNC(=O)[C@@H]1CSC(c2c[nH]c3ccccc23)N1 (mixture of isomers) [Compound 10, (2RS, 4R)-2-(1H-Indol-3yl)-thiazolidine-4-carboxylic acid octadecylamide]
IC50 ([4]; Homo sapiens, MCF7, SRB assay): 10.6 µM

IC50 [1, 12]: 13.1 µM
melting point: 95 °C
IC50 ([2]; SK-MEL-188, 48 h): 9.7 µM
SMILES: CCCCCCCCCCCCCCCCCCNC(=O)[C@@H]1CSC(c2ccc(OC)cc2)N1.Cl (mixture of isomers) [Compound 15, (2RS, 4R)-2-(4-Methoxy-phenyl)-thiazolidine-4-carboxylic acid octadecylamide Hydrochloride]
IC50 ([3]; Homo sapiens, Fibroblast, 48 h): 28 µM

IC50 [1, 12]: 1.5 µM
melting point: 115 °C
IC50 ([2]; SK-MEL-188, 48 h): 1.8 µM
SMILES: CCCCCCCCCCCCCCCCCCNC(=O)[C@@H]1CSC(c2cc(OC)c(OC)c(OC)c2)N1.Cl (mixture of isomers) [Compound 17, (2RS, 4R)-2-(3,4,5-Trimethoxy-phenyl)-thiazolidine-4-carboxylic acid octadecylamide Hydrochloride]
IC50 [5, 13]: 0.48 µM
IC50 ([3]; Homo sapiens, Fibroblast, 48 h): 5.2 µM

IC50 [1, 12]: 5.5 µM
melting point: 170 °C
IC50 ([2]; SK-MEL-188, 48 h): 2.7 µM
SMILES: CCCCCCCCCCCCCCCCCCNC(=O)[C@@H]1CSC(c2ccc(NC(C)=O)cc2)N1.Cl (mixture of isomers) [Compound 18, (2RS, 4R)-2-(4-Acetylamino-phenyl)-thiazolidine-4-carboxylic acid octadecylamide Hydrochloride]
IC50 ([3]; Homo sapiens, Fibroblast, 48 h): > 10 µM

SMILES: CCCCCCCCCCCCCCCCCCNC(=O)[C@@H]1CSC(c2ccc(F)cc2)N1 (mixture of isomers) [Compound 19, (2RS, 4R)-2-(4-Fluoro-phenyl)-thiazolidine-4-carboxylic acid octadecylamide]
IC50 ([6]; Homo sapiens): 6.8 µM

SMILES: CCCCCCCCCCCCCCCCCCNC(=O)[C@@H]1CSC(c2ccc([N+](=O)[O-])cc2)N1 (mixture of isomers) [Compound 21, (2RS, 4R)-2-(4-Nitro-phenyl)-thiazolidine-4-carboxylic acid octadecylamide]
IC50 ([4]; Homo sapiens, MCF7, SRB assay): 15.3 µM

melting point: 90 °C
SMILES: CCCCCCCCCCCCCCCCCCNC(=O)[C@@H]1CSC(c2ccc(C#N)cc2)N1 (mixture of isomers) [Compound 22, (2RS, 4R)-2-(4-Cyano-phenyl)-thiazolidine-4-carboxylic acid octadecylamide]
IC50 [5, 13]: 5 µM
IC50 ([7]; Homo sapiens, DU-145, read-out: IC50 DU-145, 96 h exposure, prostate cancer cell line): > 20 µM
IC50 ([8]; Rattus norvegicus, RH7777): > 20 µM
IC50 ([9]; Homo sapiens, TSU-Pr1, 96 h exposure): > 20000 nM
IC50 ([10]; Homo sapiens, LNCaP): 5.9 µM

melting point: 49 °C
SMILES: CCCCCCCCCCCCCCCCCCNC(=O)[C@@H]1CSC(c2c(Cl)cccc2Cl)N1 (mixture of isomers) [Compound 24, (2RS, 4R)-2-(2,6-Dichloro-phenyl)-thiazolidine-4-carboxylic acid octadecylamide]

melting point: 130 °C
SMILES: CCCCCCCCCCCCCCCCCCNC(=O)[C@@H]1CSC(c2ccc(-c3ccccc3)cc2)N1.Cl (mixture of isomers) [Compound 27, (2RS, 4R)-2-Biphenyl-4-yl-thiazolidine-4-carboxylic acid octadecylamide Hydrochloride]

SMILES: COc1cc(C2NC(C(=O)NCCCNCCCCNCCCN)CS2)cc(OC)c1OC (mixture of isomers) [Compound 224]
IC50 ([5]; 96 h exposure): 5 µM
IC50 [7, 14]: 5.1 µM
IC50 [8]: 71.9 µM
IC50 ([9]; 96 h exposure): 3000 nM
IC50 [6]: 5.9 µM
IC50 [10]: 10.9 µM
IC50 [11]: 30.5 µM
IC50 ([4]; SRB assay): > 100 µM

SMILES: NCCCNCCCCNCCCNC(=O)C(N)CO (stereo not drawn) [Compound 216]
IC50 ([5]; 96 h exposure): 4 µM
IC50 [7, 14]: 4.6 µM
IC50 [8]: 58.2 µM
IC50 ([9]; 96 h exposure): 2500 nM
IC50 [6]: 4.8 µM
IC50 [10]: 8 µM
IC50 [11]: 37.1 µM
IC50 ([4]; SRB assay): > 100 µM

SMILES: NCCCNCCCCNCCCNC(=O)CN1C(=O)CSC1c1ccccc1 (stereo not drawn) [Compound 220]
IC50 ([5]; 96 h exposure): 5.7 µM
IC50 [7, 14]: 5.3 µM
IC50 [8]: 68.4 µM
IC50 ([9]; 96 h exposure): 3200 nM
IC50 [6]: 7 µM
IC50 [10]: 12.2 µM
IC50 [11]: 34 µM
IC50 ([4]; SRB assay): > 100 µM

IC50 [1, 12]: 3.6 µM
IC50 ([2]; SK-MEL-188, 48 h): 3.2 µM
SMILES: CCCCCCCCCCCCCCCCCCNC[C@@H](CO)NC [drawing 31]
IC50 ([3]; Homo sapiens, Fibroblast, 48 h): 1.6 µM

IC50 ([1]; read-out: IC50 WM-164): 3.6 µM
IC50 [2]: 3.1 µM
SMILES: CCCCCCCCCCCCCCCCCCNC[C@@H](CO)NC [drawing 32]
IC50 [3]: 2.3 µM
